According to PMC11695783 (Frontiers in Pharmacology, 2024):
“And” between values parts separate entries of the source, which are not always exact repeats. Equal entries are not always repeated.

Tests used:
CXCL1 = CXCL1 in BALF of M. pneumoniae-infected mice (ELISA); type: in vivo, BALB/c mice; settings: for CXCL1 in BALF (AV): group AV; for CXCL1 in BALF: individual mice
Description: (§1) Adult BALB/c mice (20–22 g) were divided into a control group, a positive group, and compound 16C groups at low (20 mg/kg), medium (40 mg/kg), and high-dose (80 mg/kg) levels and oral and intramuscular tiamulin treatment groups (40 mg/kg). We formulated the above dose range based on the dose at which tiamulin was approved for injection (10–20 mg/kg) and the dose previously reported (45 mg/kg) ([EMA, 1999]; [Xiao et al., 2016]). In summary, we selected similar doses for compound 16C in vivo study. 40 mg/kg was used as an intermediate value, one-half of it as a low dose, and two times of it as a high dose. To prepare the challenge solution, logarithmic phase culture suspensions were centrifuged at 1700 g for 10 min, and the pellets were suspended in sterile PBS to obtain 1 × 10^9 CFU/mL. Before the challenge, mice were anesthetized with tribromoethanol (250 mg/kg, IP). Mice in the control groups were intratracheally inoculated with sterile PBS, whereas mice in the other groups were intratracheally challenged with 50 μL (1 × 10^9 CFU/mL) M. pneumoniae suspension once a day for 3 days. Compound 16C and tiamulin (tiamulin-IM group) dissolved using the method mentioned in pharmacokinetic studies, and the tiamulin fumarate soluble powder was dissolved in ddH2O for oral administration. After the final challenge, antibiotics were administered at low, medium, and high-dose levels (see above) at 10 a.m. and 10 p.m. daily for 4 consecutive days. Normal saline containing 5% DMSO and 5% Tween-80 was administered as control and positive groups by thigh intramuscular injection. To compare the efficacy of compound 16C and tiamulin under the same route of administration, we used the original tiamulin for intramuscular administration in the same formulation. On the other hand, tiamulin fumarate soluble powder, approved for oral administration to treat animal mycoplasma diseases in China, was administered to mice by gavage. Based on a clinical study of lefamulin in community-acquired bacterial pneumonia (CABP), subjects were administered twice a day and the 96 ± 24 h of starting treatment was an essential point for early clinical response (ECR) ([Paukner et al., 2022]). We therefore stopped treatment at 96 h and sampled at 192 h to explore whether the disease worsened after cessation of treatment. Bronchoalveolar lavage fluid (BALF) and lungs were collected at 0, 96, 192 h (Samples of 0 h were collected before starting treatment, and mice were fed ad libitum without drug treatment during 96–192 h) after the first dose, BALF for cytokine and cytological analysis and lung for histopathological evaluation.
(§2) Bronchoalveolar lavage was performed according to a standardized method ([Van Hoecke et al., 2017]). BALF was obtained following infusion of 0.5 mL PBS via tracheal cannulation into the lung twice (total 1 mL), and 200 µL was used for mycoplasma counts. The remaining BALF was centrifuged at 300 g for 10 min to separate the debris. The supernatants were stored at −80°C, and the debris was resuspended in the same volume of PBS containing red blood cell lysis buffer. A hemocytometer was used to count total cell numbers in BALF, and cell smears (Diff-Quik staining) were prepared to calculate the percentages of neutrophils, macrophages, and lymphocytes. IFN-γ, TNF-α, and CXCL1 levels in BALF samples were assessed using commercial ELISA kits using guidelines recommended by the manufacturer (Elabscience, Wuhan, China). Parallel data for each experimental group at each time point were obtained from six different mice.

[1] = tested on: bronchial epithelial cell line 16HBE; parameters: method as in PMID 26150841; settings: ref [30]; cited from earlier work
ICR strain mice [2] = experiment: Acute toxicity study, oral gavage; type: in vivo
Description: Twenty four male and female SPF-grade ICR strain mice were randomly divided into 6 groups of 4 mice each. Compound 16C was dissolved in DMSO at doses of 0, 8, 40, 200, 1,000, and 5,000 mg/kg and was administered to the mice by gavage.
(§3) Ten mice were gavaged with 5,000 mg/kg of compound 16C and another 10 mice were given DMSO orally as a control. The mice were fed and watered ad libitum. The animals’ appearance, diet, behavior, and death were observed and recorded for 14 consecutive days after administration. The LD50 was calculated as previously described ([Xiao et al., 2019]), and the test was repeated twice. To assess the acute toxicity of intramuscular administration in mice, we repeated the above experiment and replaced gavage with intramuscular injection.

Mycoplasma pneumoniae = experiment: In vivo pharmacodynamic study: Mycoplasma pneumoniae loads in BALF of infected mice; parameters: species or system BALB/c mice; settings: for MPcounts in BALF (AV): group AV; for MPcounts in BALF: individual mice
Description: as §1, §2

ICR strain mice [3] = experiment: Acute toxicity study, intramuscular injection; type: in vivo
Description: as §3

A549 = tested on: A549; parameters: method as in PMID 26150841; settings: A549, 8 μg/mL, compared with the control drugs; ref [30]; cited from earlier work
RAW 264.7 = tested on: RAW 264.7; parameters: method as in PMID 26150841; settings: RAW 264.7, 8 μg/mL, compared with the control drugs; ref [30]; cited from earlier work
mice = tested on: mice; parameters: method as in EMA, 1999; settings: administered intravenously, ref EMA, 1999; cited from earlier work
[4] = compound 16C 20 mg/kg IM, 192 h
[5] = compound 16C 40 mg/kg IM, 192 h
[6] = compound 16C 80 mg/kg IM, 192 h
[7] = tiamulin 40 mg/kg IM, 96 h, listed as Tiamulin-IM

Question: Which results are given for `C=CC1(C)CC(OC(=O)CSc2ccc(NC(=O)Cc3ccc([N+](=O)[O-])cc3)cc2)C2(C)C(C)CCC3(CCC(=O)C32)C(C)C1O` (centres unmarked) [compound 16C, 22–((4-((4-nitrophenyl)acetamido)phenyl)thio)deoxypleuromutilin]?
Answer: CXCL1 in BALF (AV) (CXCL1; compound 16C 20 mg/kg IM, 96 h): 48.0123 pg/mL; CXCL1 in BALF (CXCL1; compound 16C 20 mg/kg IM, 96 h): 56.3478 pg/mL and 48.458 pg/mL and 47.2524 pg/mL and 45.2286 pg/mL and 42.7748 pg/mL; CXCL1 in BALF (AV) (CXCL1; [4]): 38.192 pg/mL; CXCL1 in BALF (CXCL1; [4]): 48.0568 pg/mL and 31.7563 pg/mL and 40.2912 pg/mL and 33.499 pg/mL and 37.352 pg/mL and 38.1966 pg/mL; CXCL1 in BALF (AV) (CXCL1; compound 16C 40 mg/kg IM, 96 h): 22.7681 pg/mL; CXCL1 in BALF (CXCL1; compound 16C 40 mg/kg IM, 96 h): 15.9622 pg/mL and 24.4156 pg/mL and 34.1197 pg/mL and 28.066 pg/mL and 17.0225 pg/mL; CXCL1 in BALF (AV) (CXCL1; [5]): 28.9333 pg/mL; CXCL1 in BALF (CXCL1; [5]): 23.476 pg/mL and 20.5799 pg/mL and 29.3957 pg/mL and 43.4026 pg/mL and 16.4951 pg/mL and 40.2505 pg/mL; CXCL1 in BALF (AV) (CXCL1; compound 16C 80 mg/kg IM, 96 h): 24.5788 pg/mL; CXCL1 in BALF (CXCL1; compound 16C 80 mg/kg IM, 96 h): 33.6631 pg/mL and 23.7534 pg/mL and 35.719 pg/mL and 18.1872 pg/mL and 17.5299 pg/mL and 18.6204 pg/mL; CXCL1 in BALF (AV) (CXCL1; [6]): 39.611 pg/mL; CXCL1 in BALF (CXCL1; [6]): 45.7844 pg/mL and 28.8637 pg/mL and 42.9442 pg/mL and 41.3398 pg/mL and 45.9405 pg/mL and 32.7936 pg/mL; influence on cell viability [1]: slightly more affected; deaths (pre-test) (ICR strain mice [2]; gavage 8, 40, 200, 1,000, and 5,000 mg/kg in DMSO, observed 14 d): no deaths were observed; mouse deaths (ICR strain mice [2]; oral gavage, single dose of 5,000 mg/kg, after 2 weeks): did not result in any mouse deaths; LD50 (ICR strain mice [2]; oral gavage, single dose, mice, observed 14 d): > 5,000 mg/kg; symptoms observed (ICR strain mice [2]; single dose of 5,000 mg/kg, oral gavage or intramuscular injection, mice rapidly recovered): anorexic symptoms; microbial reduction in BALF (Mycoplasma pneumoniae; compound 16C 20 mg/kg IM twice daily 4 d, 96 h): 1.40 log10 CFU/mL; MPcounts in BALF (AV) (Mycoplasma pneumoniae; compound 16C 20 mg/kg IM, 96 h): 4.601 Log10CFU/mL; MPcounts in BALF (Mycoplasma pneumoniae; compound 16C 20 mg/kg IM, 96 h): 5.04 Log10CFU/mL and 4.682 Log10CFU/mL and 3.8451 Log10CFU/mL and 4.709 Log10CFU/mL and 4.293 Log10CFU/mL and 5.039 Log10CFU/mL; MPcounts in BALF (AV) (Mycoplasma pneumoniae; [4]): 3.598 Log10CFU/mL; MPcounts in BALF (Mycoplasma pneumoniae; [4]): 3.747 Log10CFU/mL and 3.757 Log10CFU/mL and 3.482 Log10CFU/mL and 3.599 Log10CFU/mL and 3.64 Log10CFU/mL and 3.366 Log10CFU/mL; microbial reduction in BALF (Mycoplasma pneumoniae; compound 16C 40 mg/kg IM twice daily 4 d, 96 h): 2.02 log10 CFU/mL; MPcounts in BALF (AV) (Mycoplasma pneumoniae; compound 16C 40 mg/kg IM, 96 h): 3.896 Log10CFU/mL; MPcounts in BALF (Mycoplasma pneumoniae; compound 16C 40 mg/kg IM, 96 h): 4.213 Log10CFU/mL and 4.174 Log10CFU/mL and 3.6574 Log10CFU/mL and 4.285 Log10CFU/mL and 3.708 Log10CFU/mL and 3.341 Log10CFU/mL; MPcounts in BALF (AV) (Mycoplasma pneumoniae; [5]): 3.662 Log10CFU/mL; MPcounts in BALF (Mycoplasma pneumoniae; [5]): 3.675 Log10CFU/mL and 3.607 Log10CFU/mL and 3.633 Log10CFU/mL and 3.784 Log10CFU/mL and 3.322 Log10CFU/mL and 3.954 Log10CFU/mL; microbial reduction in BALF (Mycoplasma pneumoniae; compound 16C 80 mg/kg IM twice daily 4 d, 96 h): 2.68 log10 CFU/mL; microbial reduction in BALF (Mycoplasma pneumoniae; compound 16C 80 mg/kg IM twice daily 4 d, 192 h): 2.65 log10 CFU/mL; MPcounts in BALF (AV) (Mycoplasma pneumoniae; compound 16C 80 mg/kg IM, 96 h): 3.141 Log10CFU/mL; MPcounts in BALF (Mycoplasma pneumoniae; compound 16C 80 mg/kg IM, 96 h): 3.314 Log10CFU/mL and 3.255 Log10CFU/mL and 3.244 Log10CFU/mL and 3.15 Log10CFU/mL and 2.656 Log10CFU/mL and 3.223 Log10CFU/mL; MPcounts in BALF (AV) (Mycoplasma pneumoniae; [6]): 3.173 Log10CFU/mL; MPcounts in BALF (Mycoplasma pneumoniae; [6]): 3.05 Log10CFU/mL and 3.185 Log10CFU/mL and 3.04 Log10CFU/mL and 3.438 Log10CFU/mL and 3.295 Log10CFU/mL and 3.0308 Log10CFU/mL; mouse deaths (ICR strain mice [3]; single dose of 5,000 mg/kg, after 2 weeks): did not result in any mouse deaths; LD50 (ICR strain mice [3]; single dose, mice, observed 14 d): > 5,000 mg/kg; influence on cell viability (A549): only slight influences on the viability; influence on cell viability (RAW 264.7): only slight influences on the viability

Question: Which results are given for `C=C[C@]1(C)C[C@@H](OC(=O)CSCCN(CC)CC)[C@]2(C)[C@H](C)CC[C@]3(CCC(=O)[C@H]32)[C@@H](C)[C@@H]1O` [tiamulin, Tiamulin, reference compound]?
Answer: LD50 (mice): 50 mg/kg; CXCL1 in BALF (AV) (CXCL1; [7]): 35.2692 pg/mL; CXCL1 in BALF (CXCL1; [7]): 32.338 pg/mL and 47.9047 pg/mL and 25.7589 pg/mL and 33.1238 pg/mL and 37.221 pg/mL; CXCL1 in BALF (AV) (CXCL1; tiamulin 40 mg/kg IM, 192 h): 47.4109 pg/mL; CXCL1 in BALF (CXCL1; tiamulin 40 mg/kg IM, 192 h, listed as Tiamulin-IM): 47.2576 pg/mL and 36.3942 pg/mL and 46.6093 pg/mL and 59.3827 pg/mL; CXCL1 in BALF (AV) (CXCL1; tiamulin 40 mg/kg PO (fumarate soluble powder), 96 h): 40.932 pg/mL; CXCL1 in BALF (AV) (CXCL1; tiamulin 40 mg/kg PO (fumarate soluble powder), 192 h): 46.955 pg/mL; microbial reduction in BALF (Mycoplasma pneumoniae; tiamulin 40 mg/kg IM twice daily 4 d, 96 h): 2.26 log10 CFU/mL; MPcounts in BALF (AV) (Mycoplasma pneumoniae; tiamulin 40 mg/kg IM, 96h): 3.805 Log10CFU/mL; MPcounts in BALF (Mycoplasma pneumoniae; tiamulin 40 mg/kg IM, 96h, listed as TiamulinIM): 3.506 Log10CFU/mL and 3.899 Log10CFU/mL and 3.382 Log10CFU/mL and 5.052 Log10CFU/mL and 3.608 Log10CFU/mL and 3.384 Log10CFU/mL; MPcounts in BALF (AV) (Mycoplasma pneumoniae; tiamulin 40 mg/kg IM, 192 h): 3.657 Log10CFU/mL; MPcounts in BALF (Mycoplasma pneumoniae; tiamulin 40 mg/kg IM, 192h, listed as TiamulinIM): 3.57 Log10CFU/mL (2×) and 3.868 Log10CFU/mL and 3.692 Log10CFU/mL and 3.619 Log10CFU/mL and 3.625 Log10CFU/mL; microbial reduction in BALF (Mycoplasma pneumoniae; tiamulin 40 mg/kg PO (tiamulin fumarate soluble powder) twice daily 4 d, 96 h): 1.17 log10 CFU/mL
